Among the data in PubChem BioAssay AID624129 (Sanford-Burnham Center for Chemical Genomics, 2012) are outcome, IC50 and inhibition values, retold here.

This test concerns the target C-X-C chemokine receptor type 6 (Homo sapiens) (UniProt O00574). Put plainly: potency against CXCR6 with APJ panel – cell-based, beta-arrestin, DiscoveRx, uHTS hits, dose response (AID 624129). Conditions: CXCR6 beta-arrestin (DiscoveRx) antagonist cell assay; for outcome: CXCR6, dose range 1; for inhibition: CXCR6, run 2, dose range 1, at 79 µM (top of the series).
The mark [1] stands for this setting: CXCR6, dose range 1, mean IC50 across replicates.

Active and inactive are the calls of the source. How the calls were made is not given here.

C-X-C chemokine receptor type 6 (Homo sapiens), sequence (O00574 whole entry, looked up): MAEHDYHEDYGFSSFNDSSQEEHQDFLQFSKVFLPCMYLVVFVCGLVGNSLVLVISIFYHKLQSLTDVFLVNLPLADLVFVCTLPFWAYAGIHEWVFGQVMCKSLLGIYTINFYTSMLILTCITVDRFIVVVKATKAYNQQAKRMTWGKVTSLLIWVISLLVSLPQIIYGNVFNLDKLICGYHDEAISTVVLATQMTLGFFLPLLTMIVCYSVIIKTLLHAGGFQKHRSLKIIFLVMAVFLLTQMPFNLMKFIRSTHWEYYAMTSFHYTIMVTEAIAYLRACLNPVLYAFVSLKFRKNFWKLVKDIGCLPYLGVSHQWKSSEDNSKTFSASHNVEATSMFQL

A word on the IC50: it is the concentration that inhibits the measured activity by half. Broadly, the inhibition is the relative decrease from the control value, in per cent. Turning to `COc1cccc(/C=C2/CCC(CN(C)C)C2=O)c1` (stereo not given), the outcome was inactive and the inhibition worked out at 111%. In addition, the IC50 under setting [1] was 19.4 µM. This compound also showed an IC50 (CXCR6, run 1, dose range 2) of 20.6 µM. Also, the IC50 (CXCR6, run 2, dose range 2) came to 18.2 µM.
For `CC[N+]1(C)CCC(O)(/C=C/c2ccccc2)C(C(=O)/C=C/c2ccccc2)C1` (stereo not given) the same measures were “inactive”, 112%, 18.2 µM, 17.8 µM and 18.7 µM.
Taken in the same sequence, the figures for `COc1ccc(CNC(=O)c2nc(S(=O)(=O)Cc3ccccc3)ncc2Cl)cc1` were “inactive”, 108%, 17.9 µM, 15.1 µM and 20.7 µM.
Taken in the same sequence, the figures for `COc1cc(/C=C(\C#N)c2nc3ccccc3o2)ccc1O` were “inactive”, 73.9%, 35.5 µM, 28.8 µM and 42.1 µM.
In the case of `O=C(NNc1ccc([N+](=O)[O-])cc1[N+](=O)[O-])c1ccco1`, the result was inactive and the inhibition is 86.8%. Besides, the 50% inhibitory concentration (IC50) under setting [1] is 30.2 µM. Under “CXCR6, run 1, dose range 2”, the 50% inhibitory concentration (IC50) was determined as 30.4 µM. For the same compound, the IC50 (CXCR6, run 2, dose range 2) was 29.9 µM.
With `Nc1ccccc1C#CC(=O)c1ccccc1`, the outcome was inactive and the inhibition stood at 111%. Besides, under setting [1], the IC50 worked out at 14.8 µM. Further, for the setting “CXCR6, run 1, dose range 2”, the IC50 amounted to 14.2 µM. In addition, the IC50 (CXCR6, run 2, dose range 2) was found to be 15.3 µM.
On to `C=CCSC1=N/C(=C\c2cc(OCC)c(OC(C)=O)c([N+](=O)[O-])c2)C(=O)S1`, for which the result was inactive and the inhibition came out at 96.9%. For the same compound, under setting [1], the 50% inhibitory concentration (IC50) came out at 47.2 µM. Also, the IC50 (CXCR6, run 1, dose range 2) was 61 µM. Also, the concentration for half-maximal inhibition (IC50) (CXCR6, run 2, dose range 2) worked out at 33.4 µM.
Taken in the same sequence, the figures for `O=C1C=CC(=O)N1CCNc1ncc(C(F)(F)F)cc1Cl` were “inactive”, 110%, 15.5 µM, 15.7 µM and 15.2 µM.
For `FC(F)(F)c1cnc(NNC(=S)Nc2ccccc2)c(Cl)c1` the same measures were “inactive”, 112%, 14.9 µM, 12 µM and 17.8 µM.
For `Cc1ccc(NS(=O)(=O)c2cc([N+](=O)[O-])ccc2NNC(=S)Nc2cc(C)ccc2C)c(C)c1` the same measures were “inactive”, 114%, 33 µM, 21.2 µM and 44.8 µM.
`Cc1ccc(NC(=S)NNc2ncc(C(F)(F)F)cc2Cl)cc1`: the outcome was inactive and the inhibition is 105%. Under setting [1], this compound registered a concentration for half-maximal inhibition (IC50) of 13.5 µM. In addition, under “CXCR6, run 1, dose range 2”, the IC50 was 10.4 µM. Further, the half-maximal inhibitory concentration (IC50) (CXCR6, run 2, dose range 2) came out at 16.6 µM.
Taken in the same sequence, the figures for `O=C1C=CC2C3C(=O)N(c4ccccc4)C(=O)C3C1N2Cc1ccccc1` (stereo not given) were “inactive”, 108%, 21.5 µM, 19.5 µM and 23.5 µM.
Taken in the same sequence, the figures for `CC1(C)Cc2ccccc2C(NNC(=O)c2ccccn2)=N1` were “inactive”, 108%, 19.1 µM, 18 µM and 20.2 µM.
For `COc1ccc(/C=C(/C(=O)c2cccs2)N2C=CC=CC2=C(C#N)C#N)cc1` the same measures were “inactive”, 109%, 19.9 µM, 20.3 µM and 19.5 µM.
Consider `Cc1ccccc1CS(=O)(=O)c1nnc([C@H](Cc2ccccc2)NC(=O)OC(C)(C)C)o1`, for which the result was inactive and the inhibition came to 110%. The compound also registered an IC50 under setting [1] of 15.9 µM. Besides, the IC50 (CXCR6, run 1, dose range 2) turned out to be 16 µM. Besides, the IC50 (CXCR6, run 2, dose range 2) was found to be 15.7 µM.
As to `O=C1c2cccc3c([N+](=O)[O-])ccc(c23)C(=O)N1c1ccc(Cl)cn1`, the outcome was inactive and the inhibition stood at 92.1%. Also, under setting [1], the IC50 turned out to be 19.6 µM. The compound further yielded an IC50 (CXCR6, run 1, dose range 2) of 17.7 µM. In addition, the IC50 (CXCR6, run 2, dose range 2) stood at 21.6 µM.
Consider `COc1cc(C(=O)NCC(c2ccco2)N2CCc3ccccc3C2)cc(OC)c1OC` (stereo not given), for which the result was inactive and the inhibition turned out to be 72.2%. Under setting [1], the IC50 is 22.3 µM. This compound had an IC50 (CXCR6, run 1, dose range 2) of 16.7 µM. Also, where the note is “CXCR6, run 2, dose range 2”, the IC50 worked out at 27.8 µM.
With `COc1ccc(-n2nnnc2S(=O)(=O)CC(=O)N2CCCCC2)cc1`, the result was inactive and the inhibition was 97.5%. Under setting [1], the IC50 stood at 19 µM. This compound had an IC50 (CXCR6, run 1, dose range 2) of 19.3 µM. The same compound yielded an IC50 (CXCR6, run 2, dose range 2) of 18.8 µM.
